Target: SARM1 (50-724) (Homo sapiens (Human), UniProt Q6SZW1)
Assay: SARM1 (50-724) enzymatic assay
Type: biochemical
Conditions: SARM1 inhibitory activity; 2 nM SARM1 (50-724), 200 μM NMN activator, 100 μM NAD+ substrate, 1 h, LC-MS/MS
Protocol: The enzymatic assay was performed in a 384-well plate using Dulbecco's PBS buffer as the reaction buffer. Purified SARM1 (50-724) with a final concentration of 2 nM was pre-incubated with the test compound at 1% DMSO final assay concentration for 15 min at room temperature. The reaction was initiated by adding the mixture of 200 μM NMN as activator and 100 μM NAD^+ as substrate. After 1 h of incubation at room temperature, the reaction was terminated with 10 times volume of 70% acetonitrile, then centrifuged at 3800 rpm for 10 min. The samples were analyzed using LC-MS/MS after diluted to the proper concentration by 10 mM ammonium acetate (pH 9.75).

Chain of SARM1 (50-724) (Q6SZW1 50-724): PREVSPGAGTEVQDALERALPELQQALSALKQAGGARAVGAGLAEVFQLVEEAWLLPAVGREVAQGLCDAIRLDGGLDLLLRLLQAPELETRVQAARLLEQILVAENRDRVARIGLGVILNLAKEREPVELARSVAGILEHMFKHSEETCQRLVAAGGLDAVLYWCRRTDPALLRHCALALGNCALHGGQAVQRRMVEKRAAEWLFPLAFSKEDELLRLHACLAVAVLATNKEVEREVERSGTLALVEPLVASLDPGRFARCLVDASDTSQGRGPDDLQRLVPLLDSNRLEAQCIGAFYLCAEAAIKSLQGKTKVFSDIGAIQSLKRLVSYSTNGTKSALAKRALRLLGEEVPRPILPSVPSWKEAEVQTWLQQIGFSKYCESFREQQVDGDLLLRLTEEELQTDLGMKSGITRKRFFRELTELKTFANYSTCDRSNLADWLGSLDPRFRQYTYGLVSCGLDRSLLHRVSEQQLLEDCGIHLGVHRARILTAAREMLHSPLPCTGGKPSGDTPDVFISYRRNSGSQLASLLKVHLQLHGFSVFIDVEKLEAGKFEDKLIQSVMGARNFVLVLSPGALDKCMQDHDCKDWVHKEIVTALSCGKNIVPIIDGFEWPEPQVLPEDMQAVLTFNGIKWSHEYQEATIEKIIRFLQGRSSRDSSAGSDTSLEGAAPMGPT

Structure (SMILES)	IC50 [µM]
O=c1[nH]c2ccc(-c3cncc(Nc4nccs4)c3)cc2o1 [Compound 115, 6-(5-(thiazol-2-ylamino)pyridin-3-yl)benzo[d]oxazol-2(3H)-one]	< 5
Cc1cc(Nc2cncc(-c3ccc4[nH]c(=O)oc4c3)c2)n(C)n1 [Compound 117, 6-(5-((1,3-dimethyl-1H-pyrazol-5-yl)amino)pyridin-3-yl)benzo[d]oxazol-2(3H)-one]	< 5
O=c1[nH]c2ccc(-c3cncc(Nc4cccnn4)c3)cc2o1 [Compound 118, 6-(5-(pyridazin-3-ylamino)pyridin-3-yl)benzo[d]oxazol-2(3H)-one]	< 5
O=c1[nH]c2ccc(-c3cncc(Oc4ccccc4)c3)cc2o1 [Compound 119, 6-(5-phenoxypyridin-3-yl)benzo[d]oxazol-2(3H)-one]	< 5
Cc1ccncc1-c1ccc2[nH]c(=O)[nH]c(=O)c2c1 [Compound 120, 6-(4-methylpyridin-3-yl)quinazoline-2,4(1H,3H)-dione]	< 5

From patent US20250236613A1, “SARM1 MODULATORS, PREPARATIONS, AND USES THEREOF” (SIRONAX LTD., priority 2021, published 2025)
